Like-named read-outs stand apart in the source and are kept apart here.
What was measured:
TNF release = experiment: TNF assay: TNF release from LPS-stimulated human PBMCs (TNF ELISA); type: cell-based; settings: PBMC, read-out: IC50 (TNF assay)
In short: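 Human PBMCs at 10k/well pretreated with compound dilutions 2 h, then stimulated with LPS (10 ng/mL) for 18 h. TNF in supernatants quantified by ELISA; IC50 for inhibition of TNF release fitted from concentration–response.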

NF-κB = NF-κB assay: THP1-NF-κB-LUC cells, LPS-stimulated secreted luciferase; type: cell-based; settings: THP1-NF-κB-LUC cells, read-out: IC50 (NF-κB assay)
In short: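 THP1-NF-κB-LUC cells (25k/well) were pretreated with compounds for 2 h, then stimulated with LPS (10 ng/mL) for 18 h. Secreted luciferase was measured and normalized to vehicle, and IC50 was fitted from the concentration series.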

[1] = human PBMCs, compounds 2 hours before LPS (10 ng/ml) for 18 hours, supernatant TNF ELISA
[2] = compounds 2 hours before LPS (10 ng/mL) for 18 hours, secreted luciferase
[3] = LPS-stimulated human PBMCs, TNF ELISA

| IC50 (TNF release; [1]) [nM] | IC50 (NF-κB; [2]) [nM] | IC50 (TNF release; [3]) [nM] | IC50 (NF-κB; LPS-stimulated) [nM] | Structure (SMILES) |
| --- | --- | --- | --- | --- |
| > 10000 | 1000 to 10000 | – | – | Cc1ccc(S(=O)(=O)c2c(O)[nH]c3ncccc3c2=O)cc1 [BC19258] |
| > 10000 | 1000 to 10000 | – | – | O=c1c(S(=O)(=O)c2ccc(Cl)cc2)c(O)[nH]c2ncccc12 [BC19259] |
| – | – | < 100 | < 100 | Cc1ccc(S(=O)(=O)c2nc(-c3ccccc3)oc2S(C)(=O)=O)cc1 [BC19260] |
| – | – | > 10000 | < 100 | CS(=O)(=O)c1oc(-c2ccccc2)nc1S(=O)(=O)c1cccc(F)c1 [BC19261] |
| – | – | < 100 | 100 to 1000 | CS(=O)(=O)c1oc(-c2ccccc2)nc1S(=O)(=O)c1ccc(F)c(F)c1 [BC19262] |
| – | – | 100 to 1000 | 100 to 1000 | Cc1ccc(S(=O)(=O)c2nc(-c3ccccc3)oc2S(=O)(=O)C(C)C)cc1 [BC19263] |
| – | – | 100 to 1000 | < 100 | CCCS(=O)(=O)c1oc(-c2ccccc2)nc1S(=O)(=O)c1ccc(C)cc1 [BC19264] |
| – | – | 100 to 1000 | < 100 | Cc1ccc(S(=O)(=O)c2nc(-c3ccccc3)oc2S(=O)(=O)CC2CC2)cc1 [BC19265] |
| – | – | < 100 | < 100 | COCCS(=O)(=O)c1oc(-c2ccccc2)nc1S(=O)(=O)c1ccc(C)cc1 [BC19266] |
| – | – | 100 to 1000 | < 100 | Cc1ccc(S(=O)(=O)c2nc(-c3ccccc3)oc2S(=O)(=O)C2CCCCC2)cc1 [BC19267] |
| – | – | < 100 | 100 to 1000 | CCC[S+]([O-])c1oc(-c2ccccc2)nc1S(=O)(=O)c1cccc(F)c1 (stereo not shown) [BC19268] |
| – | – | < 100 | 100 to 1000 | CC(C)S(=O)(=O)c1oc(-c2ccccc2)nc1S(=O)(=O)c1cccc(F)c1 [BC19269] |
| – | – | < 100 | < 100 | CC(C)CS(=O)(=O)c1oc(-c2ccccc2)nc1S(=O)(=O)c1cccc(F)c1 [BC19270] |
| – | – | < 100 | 100 to 1000 | O=S(=O)(CC1CC1)c1oc(-c2ccccc2)nc1S(=O)(=O)c1cccc(F)c1 [BC19271] |
| – | – | < 100 | < 100 | COCC[S+]([O-])c1oc(-c2ccccc2)nc1S(=O)(=O)c1cccc(F)c1 (stereo not shown) [BC19272] |
| – | – | 100 to 1000 | 100 to 1000 | CCCS(=O)(=O)c1oc(-c2ccccc2)nc1S(=O)(=O)c1ccc(F)c(F)c1 [BC19273] |
| – | – | 100 to 1000 | < 100 | CC(C)S(=O)(=O)c1oc(-c2ccccc2)nc1S(=O)(=O)c1ccc(F)c(F)c1 [BC19274] |
| – | – | < 100 | < 100 | CC(C)CS(=O)(=O)c1oc(-c2ccccc2)nc1S(=O)(=O)c1ccc(F)c(F)c1 [BC19275] |
| – | – | < 100 | 100 to 1000 | COCCS(=O)(=O)c1oc(-c2ccccc2)nc1S(=O)(=O)c1ccc(F)c(F)c1 [BC19276] |
| – | – | 100 to 1000 | < 100 | O=S(=O)(c1ccc(F)c(F)c1)c1nc(-c2ccccc2)oc1S(=O)(=O)C1CCCCC1 [BC19277] |
| – | – | < 100 | < 100 | CC(C)CS(=O)(=O)c1oc(-c2ccccc2)nc1S(=O)(=O)c1ccc(Cl)cc1 [BC19278] |
| – | – | 100 to 1000 | 100 to 1000 | CS(=O)(=O)c1sc(-c2ccccc2)nc1S(=O)(=O)c1ccc(F)c(F)c1 [BC19279] |
| > 10000 | 1000 to 10000 | – | – | COc1ccc(NS(=O)(=O)c2cc3c(cc2Cl)NC(=O)C(C)O3)cc1Cl (stereo not shown) [BC19280] |

| IC50 (TNF release; [1]) [nM] | IC50 (NF-κB; [2]) [nM] | IC50 (TNF release; [3]) [nM] | IC50 (NF-κB; LPS-stimulated) [nM] | Structure (SMILES) |
| --- | --- | --- | --- | --- |
| > 10000 | 100 to 1000 | – | – | CCOc1ccc(NS(=O)(=O)c2cc3c(cc2Cl)NC(=O)C(C)O3)cc1 (stereo not shown) [BC19281] |
| > 10000 | 100 to 1000 | – | – | CCC1Oc2cc(S(=O)(=O)Nc3cccc(C(C)=O)c3)c(Cl)cc2NC1=O (stereo not shown) [BC19282] |
| > 10000 | 100 to 1000 | – | – | CCc1cccc(NS(=O)(=O)c2cc3c(cc2Br)NC(=O)C(C)O3)c1 (stereo not shown) [BC19283] |
| > 10000 | < 100 | – | – | CC1Oc2cc(S(=O)(=O)Nc3ccc(F)c(F)c3)c(Br)cc2NC1=O (stereo not shown) [BC19284] |
| > 10000 | 1000 to 10000 | – | – | CC1Oc2cc(S(=O)(=O)Nc3ccc(F)cc3Cl)c(Br)cc2NC1=O (stereo not shown) [BC19285] |
| > 10000 | < 100 | – | – | CCC1Oc2cc(S(=O)(=O)Nc3ccc(Cl)cc3)c(Br)cc2NC1=O (stereo not shown) [BC19286] |
| > 10000 | 1000 to 10000 | – | – | CCC1Oc2cc(S(=O)(=O)NCc3ccccc3)c(Br)cc2NC1=O (stereo not shown) [BC19287] |
| > 10000 | < 100 | – | – | CCc1cccc(NS(=O)(=O)c2cc(Br)cc3c2OC(C)C(=O)N3)c1 (stereo not shown) [BC19288] |
| > 10000 | < 100 | – | – | CC1Oc2c(cc(Br)cc2S(=O)(=O)Nc2ccc(F)cc2Cl)NC1=O (stereo not shown) [BC19289] |
| > 10000 | < 100 | – | – | CCC1Oc2c(cc(Br)cc2S(=O)(=O)Nc2ccc(Cl)cc2)NC1=O (stereo not shown) [BC19290] |
| > 10000 | < 100 | – | – | CC1Oc2c(cc(Cl)cc2S(=O)(=O)Nc2ccccc2)NC1=O (stereo not shown) [BC19291] |
| > 10000 | < 100 | – | – | COc1ccc(NS(=O)(=O)c2cc(Cl)cc3c2OC(C)C(=O)N3)cc1Cl (stereo not shown) [BC19292] |
| > 10000 | 100 to 1000 | – | – | CC(C)NS(=O)(=O)c1cc(Cl)cc2c1OC(C)C(=O)N2 (stereo not shown) [BC19293] |
| > 10000 | 1000 to 10000 | – | – | CCNS(=O)(=O)c1cc(Cl)cc2c1OC(C)C(=O)N2 (stereo not shown) [BC19294] |
| – | – | > 10000 | < 100 | CC(=O)N1CC(=O)Nc2ccc(S(=O)(=O)N3CCCC3)cc21 [BC19295] |
| – | – | > 10000 | 1000 to 10000 | CC1C(=O)Nc2ccc(S(=O)(=O)N3CCCC3)cc2N1C (stereo not shown) [BC19296] |
| – | – | > 10000 | 1000 to 10000 | CC1C(=O)Nc2ccc(S(=O)(=O)N3CCCC3)cc2N1C(=O)N1CCOCC1 (stereo not shown) [BC19297] |
| – | – | > 10000 | < 100 | CC(C)NC(=O)N1c2cc(S(=O)(=O)N3CCCC3)ccc2NC(=O)C1C (stereo not shown) [BC19298] |
| – | – | > 10000 | 1000 to 10000 | COCCNC(=O)N1c2cc(S(=O)(=O)N3CCCC3)ccc2NC(=O)C1C (stereo not shown) [BC19299] |
| – | – | > 10000 | 100 to 1000 | NS(=O)(=O)c1ccc2c(c1)N1CCCC1C(=O)N2 (stereo not shown) [BC19300] |
| – | – | > 10000 | < 100 | Cc1nnc(-c2ccc3nc(-c4ccc(F)cc4)c(-c4ccc(F)cc4)nc3c2)n1C [BC19301] |
| – | – | > 10000 | 1000 to 10000 | Cn1cc(-c2ccc3nc(-c4ccc(F)cc4)c(-c4ccc(F)cc4)nc3c2)cn1 [BC19302] |
| – | – | > 10000 | > 10000 | COc1ncc(-c2ccc3nc(-c4ccc(F)cc4)c(-c4ccc(F)cc4)nc3c2)cc1F [BC19303] |

| IC50 (TNF release; [1]) [nM] | IC50 (NF-κB; [2]) [nM] | IC50 (TNF release; [3]) [nM] | IC50 (NF-κB; LPS-stimulated) [nM] | Structure (SMILES) |
| --- | --- | --- | --- | --- |
| – | – | > 10000 | 1000 to 10000 | Cc1ccncc1-c1ccc2nc(-c3ccc(F)cc3)c(-c3ccc(F)cc3)nc2c1 [BC19304] |
| – | – | > 10000 | > 10000 | Cn1ncc2c(-c3ccc4nc(-c5ccc(F)cc5)c(-c5ccc(F)cc5)nc4c3)cccc21 [BC19305] |
| – | – | > 10000 | 100 to 1000 | Fc1ccc(-c2nc3ccc(-c4nncn4CCN4CCOCC4)cc3nc2-c2ccc(F)cc2)cc1 [BC19306] |
| – | – | < 100 | 100 to 1000 | Cc1ccc(S(=O)(=O)c2nc3cc(C(=O)N4CCN(C)CC4)ccc3nc2-c2ccc(F)cc2)cc1F [BC19307] |
| – | – | < 100 | 100 to 1000 | Cc1ccc(S(=O)(=O)c2nc3cc(C(=O)N4CCN(C)CC4)ccc3nc2-c2ccc(F)cc2)cc1 [BC19308] |
| – | – | 1000 to 10000 | 100 to 1000 | CN1CCC(C(=O)Nc2ccc3nc(-c4ccc(F)cc4)c(-c4ccc(F)cc4)nc3c2)CC1 [BC19309] |
| – | – | > 10000 | < 100 | CC(=O)N1CCC(C(=O)Nc2ccc3nc(-c4ccc(F)cc4)c(-c4ccc(F)cc4)nc3c2)CC1 [BC19310] |
| – | – | > 10000 | < 100 | CNC(=O)N1CCC(C(=O)Nc2ccc3nc(-c4ccc(F)cc4)c(-c4ccc(F)cc4)nc3c2)CC1 [BC19311] |
| – | – | 1000 to 10000 | < 100 | CS(=O)(=O)N1CCC(C(=O)Nc2ccc3nc(-c4ccc(F)cc4)c(-c4ccc(F)cc4)nc3c2)CC1 [BC19312] |
| – | – | 1000 to 10000 | 100 to 1000 | C=CC(=O)Nc1ccc2nc(-c3ccc(F)cc3)c(-c3ccc(F)cc3)nc2c1 [BC19313] |
| – | – | 1000 to 10000 | < 100 | CC#CC(=O)Nc1ccc2nc(-c3ccc(F)cc3)c(-c3ccc(F)cc3)nc2c1 [BC19314] |
| – | – | > 10000 | 100 to 1000 | C[C@H](Cl)C(=O)Nc1ccc2nc(-c3ccc(F)cc3)c(-c3ccc(F)cc3)nc2c1 [BC19315] |
| – | – | > 10000 | 100 to 1000 | CN1CCN(C(=O)c2ccc3nc(-c4ccc(F)cc4)c(-c4ccc(C#N)cc4)nc3c2)CC1 [BC19316] |
| – | – | > 10000 | < 100 | CN1CCN(C(=O)c2ccc3nc(-c4ccc(F)cc4)c(-c4ccc(Cl)cc4)nc3c2)CC1 [BC19317] |
| – | – | > 10000 | < 100 | CN1CCN(C(=O)c2ccc3nc(-c4ccc(F)cc4)c(-c4ccc(F)cc4F)nc3c2)CC1 [BC19318] |
| – | – | > 10000 | 1000 to 10000 | CCc1ccc(-c2nc3cc(C(=O)N4CCN(C)CC4)ccc3nc2-c2ccc(F)cc2)cc1 [BC19319] |
| – | – | > 10000 | > 10000 | O=C(O)c1cccc2nc(-c3ccc(F)cc3)c(-c3ccc(F)cc3)nc12 [BC19320] |
| – | – | > 10000 | 1000 to 10000 | C#CCNC(=O)c1cccc2nc(-c3ccc(F)cc3)c(-c3ccc(F)cc3)nc12 [BC19321] |
| > 10000 | 1000 to 10000 | – | – | Cc1ccc(S(=O)(=O)c2c(O)[nH]c3ncccc3c2=O)cc1F [BC19322] |
| > 10000 | > 10000 | – | – | O=c1c(S(=O)(=O)c2ccc(F)cc2)c(O)[nH]c2ncccc12 [BC19323] |
| 100 to 1000 | > 10000 | – | – | Nc1cccc2cc(S(=O)(=O)c3ccccc3)cnc12 [BC19324] |
| 1000 to 10000 | > 10000 | – | – | CNc1cccc2cc(S(=O)(=O)c3ccccc3)cnc12 [BC19325] |
